# Measured values from patent US10624948B2, “Use of cell-permeable peptide inhibitors of the JNK signal transduction pathway for the treatment of various diseases” (Xigen Inflammation Ltd., priority 2013, dated 2020).
# What was measured:
# [1] = system: Brown Norway rats, STZ-induced diabetic retinopathy; assay: Diabetic retinopathy prevention study in STZ treated rat (IVT); format: in vivo
# Experimental: The objective of this study was to determine the ability of XG-102 to prevent diabetic retinopathy when administered by intravitreal injections to streptozotocin (STZ)-treated (hyperglycemic) rats.
# All animals from Groups 2, 3, 4 received a 55 mg/kg intravenous (IV) dose of STZ on Day −7.
# Test items or reference item were administered by intravitreal injection to the left and right eyes of each animal on Days 1, 8 and 15 as indicated in the Experimental Design table. The animals were anesthetized (isoflurane) for the dose administration, which was performed by a board-certified veterinary ophthalmologist. Topical antibiotics (gentamicin ophthalmic solution) were applied to both eyes twice on the day before treatment, following the injection and at least once on the day following the injection. Prior to dosing, mydriatic drops (1% tropicamide and/or 2.5% phenylephrine) were applied to each eye (further applications were performed when considered appropriate by the veterinary ophthalmologist). During dosing, animals were maintained under anesthesia with isoflurane/oxygen gas. The conjunctivae were flushed with 0.9% Sodium Chloride for Injection USP. A 10 μl Hamilton syringe with 32-gauge, ½-inch needle was used for each intravitreal injection (one syringe/group/treatment). The dose volume was 5 μL/eye. Both eyes were examined by slit-lamp biomicroscopy and/or indirect ophthalmoscopy immediately following each treatment to document any abnormalities (especially to the lens, vitreous and retina) caused by the administration procedure. […]
# The in-life procedures, observations, and measurements listed below were performed for study animals. […] Food consumption was quantitatively measured weekly starting during the last week of the pretreatment period. […] Intraocular pressure was measured following each ophthalmology examination, once prestudy and on Day 22, using a TonoVet™ rebound tonometer. The pre-treatment tonometry readings were performed at the same times as anticipated for the final measurements to reduce diurnal variability. […]
# [2] = system: HCT 116 human colon tumor; assay: Orthotopic HCT 116 human colon tumors in SCID mice; format: in vivo
# Experimental: The objective of this study was to determine the effect of XG-102 on the growth of HCT 116 human colon tumor orthotopically xenografted in SCID mice.
# For XG-102 administration the required amount of XG-102 was dissolved in the vehicle. The formulation was prepared according to the procedure detailed below. Concentrations were calculated and expressed taking into account test item purity and peptide content (multiplier coefficient was 74.6%). […] Diluted solutions were maintained on ice until use. Unused material was discarded. XG-102 was injected once daily at 0.1 and 1 mg/kg/inj. for a total of fourteen consecutive administrations (Q1D×14). The routes of substance administrations were: injected subcutaneously (SC) at 5 ml/kg/inj., administered per os (PO) to mice by oral gavage via a canula at 5 ml/kg/adm. The injection and administration volumes were adapted, according to the daily individual body weight of mice.
# Twenty four to Forty-eight hours before tumor induction, 5 SCID mice were irradiated with a γ-source (1.8 Gy, Co^60, INRA, Dijon, France). Ten millions (10^7) HCT 116 cells suspended in 200 μl of RPMI medium were subcutaneously injected in the right flank of the 5 female SCJD mice. When tumors reached 1000-2000 mm^3, mice were sacrificed. […]
# Mice were sacrificed at D26. […] Invasion of liver by tumor nodules was evaluated macroscopically. […]
# [3] = system: Primary cultured macrophages; format: cell-based
# Experimental: FIG. 24 Primary cultured macrophages were incubated with XG-102 (SEQ ID NO: 11) and extensively washed.
smiles,measurement,setting,value
CC(C)C[C@@H](NC(=O)[C@@H](Cc1ccccc1)NC(=O)[C@H]1CCCN1C(=O)[C@@H](CCC(N)=O)NC(=O)[C@H](NC(=O)[C@H]1CCCN1C(=O)[C@@H](CCCNC(=N)N)NC(=O)[C@@H](CO)NC(=O)[C@@H](CCC(N)=O)NC(=O)[C@H](N)CC(=O)O)C(C)C)C(=O)N[C@H](CC(N)=O)C(=O)N[C@H](CC(C)C)C(=O)N[C@@H](C(=O)N[C@@H](C(=O)N1CCC[C@@H]1C(=O)N[C@H](CCCNC(=N)N)C(=O)N[C@H](CCCCN)C(=O)N1CCC[C@@H]1C(=O)N[C@H](CCCNC(=N)N)C(=O)N1CCC[C@@H]1C(=O)N1CCC[C@@H]1C(=O)N[C@H](CCCNC(=N)N)C(=O)N[C@H](CCCNC(=N)N)C(=O)N[C@H](CCCNC(=N)N)C(=O)N[C@H](CCC(N)=O)C(=O)N[C@H](CCCNC(=N)N)C(=O)N[C@H](CCCNC(=N)N)C(=O)N[C@H](CCCCN)C(=O)N[C@H](CCCCN)C(=O)N[C@H](CCCNC(=N)N)C(=O)NCC(=O)O)[C@H](C)O)[C@H](C)O [XG-102],mortality,"[1]; IVT Days 1, 8, 15",no XG-102-related deaths
same,"ERG wave amplitude, overall","[1]; rat, in vivo",tendency for XG-102 to reverse the decrease of the wave amplitude
same,ERG latencies,[1]; ≤2 μg/eye,comparable and remained within the control and/or pretreatment variation
same,MBWC at D−2,[2]; PO 0.1 mg/kg/adm.,7.1±4.6%
same,lethality after surgery vs vehicle treated group,"[2]; mouse, in vivo",did not significantly modify lethality compared to vehicle treated group
same,incorporation into primary macrophages,[3],strongly incorporated into primary macrophages
